From patent US7348350B2, “Pyrazolyl biphenyl carboxamides and the use thereof for controlling undesirable microorganisms” (Bayer CropScience AG, priority 2000, dated 2008)

Key:
[1] = system: Podosphaera leucotricha; experiment: Podosphaera test (apple)/protective; assay type: in vivo; conditions: 240 h, protective, application rate 100 g/ha, evaluation 10 days after inoculation, read-out: % efficacy
Method: (§1) To produce a suitable preparation of active compound, 1 part by weight of active compound is mixed with the stated amounts of solvent and emulsifier, and the concentrate is diluted with water to the desired concentration.
(§2) To test for protective activity, young plants are sprayed with the preparation of active compound at the stated application rate. After the spray coating has dried on, the plants are inoculated with an aqueous spore suspension of the apple mildew pathogen Podosphaera leucotricha. The plants are then placed in a greenhouse at approximately 23° C. and a relative atmospheric humidity of approximately 70%.
(§3) Evaluation is carried out 10 days after the inoculation. 0% means an efficacy which corresponds to that of the control, whereas an efficacy of 100% means that no infection is observed.

[2] = system: Sphaerotheca fuiginea; experiment: Sphaerotheca test (cucumber)/protective; assay type: in vivo; conditions: Cucumis sativus, 240 h, protective, application rate 100 g/ha, evaluation 10 days after inoculation, read-out: % efficacy
Method: as §1
as §2, with “Sphaerotheca fuiginea.” for “the apple mildew pathogen Podosphaera leucotricha.”
as §3

[3] = system: Venturia inaequalis; experiment: Venturia test (apple)/protective; assay type: in vivo; conditions: 288 h, protective, application rate 100 g/ha, evaluation 12 days after inoculation, read-out: % efficacy
Method: To produce a suitable preparation of active compound, 1 part by weight of active compound is mixed with the stated amount of solvent and emulsifier, and the concentrate is diluted with water to the desired concentration.
To test for protective activity, young plants are sprayed with the preparation of active compound at the stated application rate. After the spray coating has dried on, the plants are inoculated with an aqueous conidia suspension of the apple scab pathogen Venturia inaequalis and then remain in an incubation cabin at approximately 20° C. and 100% relative atmospheric humidity for 1 day.
The plants are then placed in a greenhouse at approximately 21° C. and a relative atmospheric humidity of approximately 90%.
Evaluation is carried out 12 days after the inoculation. 0% means an efficacy which corresponds to that of the control, whereas an efficacy of 100% means that no infection is observed.

[4] = system: Puccinia recondita; experiment: Puccinia test (wheat)/protective; assay type: in vivo; conditions: protective, application rate 250 g/ha, evaluation 10 days after inoculation
Method: as §1
To test for protective activity, young plants are sprayed with the preparation of active compound at the stated application rate. After the spray coating has dried on, the plants are sprayed with a conidia suspension of Puccinia recondita. The plants remain in an incubation cabin at 20° C. and 100% relative atmospheric humidity for 48 hours.
The plants are then placed in a greenhouse at a temperature of approximately 20° C. and a relative atmospheric humidity of 80% to promote the development of rust pustules.
as §3

[5] = system: Alternaria solani; experiment: Alternaria test (tomato)/protective; assay type: in vivo; conditions: protective, application rate 750 g/ha, evaluation 7 days after inoculation
Method: as §1
To test for protective activity, young tomato plants are sprayed with the preparation of active compound at the stated application rate. 1 day after the treatment, the plants are inoculated with a spore suspension of Alternaria solani and then remain at 100% rel. humidity and 20° C. for 24 h. The plants then remain at 96% rel. atmospheric humidity and a temperature of 20° C.
Evaluation is carried out 7 days after the inoculation. 0% means an efficacy which corresponds to that of the control, whereas an efficacy of 100% means that no infection is observed.

[6] = system: Gloeophyllum trabeum, Coniophora puteana, Poria placenta, Lentinus tigrinus and Coriolus versicolor; experiment: Inhibition test on giant colonies of Basidiomycetes; assay type: cell-based; conditions: 6 ppm active compound in malt extract peptone agar, 26° C.; read-out: % efficacy (percent inhibition of hyphal growth)
Method: Inhibition Test on Giant Colonies of Basidiomycetes Mycelium sections were removed from colonies of Gloeophyllum trabeum, Coniophora puteana, Poria placenta, Lentinus tigrinus and Coriolus versicolor and incubated on an agar medium containing malt extract peptone at 26° C. The inhibition of hyphal growth on active-compound-containing media was compared with the longitudinal growth on media without an addition of active compound and rated as percent inhibition.

[7] = logP by HPLC on reversed-phase column (C 18), EEC Directive 79/831 Annex V.A8; assay type: physicochemical; conditions: reversed-phase HPLC column (C 18); acidic range, pH 2.3, 0.1% aqueous phosphoric acid and acetonitrile, 43° C. (marked a)
Method: The logP values given in the Preparation Examples and Tables above were determined in accordance with EEC Directive 79/831 Annex V.A8 by HPLC (High Performance Liquid Chromatography) on a reversed-phase column (C 18). Temperature: 43° C.
In the acidic range, the determination was carried out at pH 2.3 using the mobile phases 0.1% aqueous phosphoric acid and acetonitrile; linear gradient from 10% acetonitrile to 90% acetonitrile (marked ^a) in the Table).
In the neutral range, the determination was carried out at pH 7.5 using the mobile phases 0.01 molar aqueous phosphate buffer solution and acetonitrile; linear gradient from 10% acetonitrile to 90% acetonitrile (marked ^b) in the Table).

| chromatographic logP [7] | Structure (SMILES) | pest or weed control at 100 g/ha [1] [%] | pest or weed control at 100 g/ha [2] [%] | pest or weed control at 100 g/ha [3] [%] | % efficacy [4] [%] | % efficacy [5] [%] | Emax at 6 ppm [6] [%] |
| --- | --- | --- | --- | --- | --- | --- | --- |
|  | CO/N=C/c1ccc(-c2ccccc2NC(=O)c2c(C)nn(C)c2F)cc1 [Example 1, 5-fluoro-N-{4′-[(methoxyimino)methyl]-1,1′-biphenyl-2-yl}-1,3-dimethyl-1H-pyrazole-4-carboxamide] | 100 | 100 | 100 | 100 | 95 | 100 |
|  | CO/N=C/c1ccc(-c2ccccc2NC(=O)c2c(C)nn(C)c2F)cc1F [Example 3, 5-fluoro-N-{3′-fluoro-4′-[(methoxyimino)methyl]-1,1′-biphenyl-2-yl}-1,3-dimethyl-1H-pyrazole-4-carboxamide] |  |  |  | 100 |  | 100 |
|  | CO/N=C(\C)c1ccc(-c2ccccc2NC(=O)c2c(C)nn(C)c2F)cc1 [Example 4, 5-fluoro-N-[4′-(N-methoxyethaneimidoyl)-1,1′-biphenyl-2-yl]-1,3-dimethyl-1H-pyrazole-4-carboxamide] |  |  |  |  | 90 | 100 |
| 2.51 | CO/N=C/c1ccc(-c2cccc(F)c2NC(=O)c2c(C)nn(C)c2F)cc1 [Example 9] |  |  |  | 100 |  | 100 |
